The source of these data is patent publication US20260250318A1, “COMPOSITIONS AND METHODS FOR CROSSING THE BLOOD BRAIN BARRIER” (VOYAGER THERAPEUTICS, INC., priority 2022, published 2026).

The first experiment has as its system brains, heart, liver, muscle, and DRG of the NHPs. The experiment in a line: Maturation of TTM-001 and TTM-002 capsids, NGS enrichment in NHP tissues. The experiment is classed as in vivo. Conditions: NHP DRG; NGS; relative to AAV9 control. The source says:
This Example describes maturation of the AAV9 capsid variants, TTM-001 (SEQ ID NO: 981 (amino acid) and 983 (DNA), comprising SEQ ID NO: 941 (encoded by SEQ ID NO: 942)) and TTM-002 (SEQ ID NO: 982 (amino acid) and 984 (DNA), comprising SEQ ID NO: […] (encoded by SEQ ID NO: 944)) in NHPs to further enhance their transduction and biodistribution in the central nervous system as well as other tissues, and evolve the AAV capsid variants to provide further cross-species compatibility. Two approaches were used to mature the TTM-001 and TTM-002 capsid sequences in order to randomize and mutate within and around the peptide insert comprised within loop IV of the capsid variant. […] In the first maturation approach, sets of three contiguous amino acids were randomized across the mutagenesis region in the TTM-001 and TTM-002 sequences, which spanned from position 450 to position 466, numbered according to SEQ ID NO: 981 and 982. In the second maturation approach, mutagenic primers were used to introduce point mutations at a low frequency, scattered across the mutagenesis region in the TTM-001 and TTM-002 sequences ranging from position 449 to position 466, numbered according to SEQ ID NO: 981 and 982. AAV capsid variants arising from each maturation approach for TTM-001 and TTM-002 were pooled together, for subsequent testing and characterization in NHPs.
The library of pooled matured AAV capsid variants generated using the first maturation approach and the second maturation approach for the TTM-001 and TTM-002 AAV capsid variants were injected into two NHPs. […] Following RNA recovery and RT-PCR amplification, a systematic NGS enrichment analysis was performed to calculate the fold enrichment ratio relative to an AAV9 control, and the peptides comprised within the variants were identified.
Following the RNA recovery and NGS analysis from the second maturation approach, approximately 680,000 capsid variants were identified. The 680,000 matured capsid variants were then filtered based on samples with a raw virus count greater than 10 and a coefficient of variance (CV) of less than 1, which was calculated for each peptide across the brain samples taken from the two NHPs. […] Using this filtering criteria, this led to approximately 64,000 matured capsid variants.
As to KTINGSGSPHCRVQNQQT, the “Fold Enrichment relative to AAV9, DRG (NHP)” value is given as 0.000 fold.

On to KTINGSGSPHSFFGNQQT, for which the “Fold Enrichment relative to AAV9, DRG (NHP)” value is given as 0.000 fold.

Take KTINGSGSPHSKLPKQQT: the “Fold Enrichment relative to AAV9, DRG (NHP)” value worked out at 0.000 fold.

In the case of KTINGSGSPHSKARMYQT, the “Fold Enrichment relative to AAV9, DRG (NHP)” value is recorded as 0.000 fold.

For the sequence KTINGSGSPHSVRYNQQT, the “Fold Enrichment relative to AAV9, DRG (NHP)” value is given as 0.000 fold.

With KTINGSGSPHPFVQNQQT, the “Fold Enrichment relative to AAV9, DRG (NHP)” value is recorded as 0.000 fold.

Consider KTINGSGSPHSVRCNQQT, for which the “Fold Enrichment relative to AAV9, DRG (NHP)” value is 0.000 fold.

As for KTINGSGSPHSKGCTQQT, the “Fold Enrichment relative to AAV9, DRG (NHP)” value was 0.000 fold.

Regarding KTINGSGSPHRIKQNQQT, the “Fold Enrichment relative to AAV9, DRG (NHP)” value is listed as 0.000 fold.

As to KTINGSGSPHSFTPNQQT, the “Fold Enrichment relative to AAV9, DRG (NHP)” value was 0.000 fold.

The experiment is the same for the next values; noted with them: NHP brain; NGS; relative to AAV9 control.
For the sequence KTINGSGSPHCRVQNQQT, the “Fold Enrichment relative to AAV9, Brain (NHP)” value was 0.000 fold.

For KTINGSGSPHSFFGNQQT, the “Fold Enrichment relative to AAV9, Brain (NHP)” value came to 0.000 fold.

Consider KTINGSGSPHSKLPKQQT, for which the “Fold Enrichment relative to AAV9, Brain (NHP)” value is 0.000 fold.

With KTINGSGSPHSKARMYQT, the “Fold Enrichment relative to AAV9, Brain (NHP)” value came out at 0.000 fold.

Turning to KTINGSGSPHSVRYNQQT, the “Fold Enrichment relative to AAV9, Brain (NHP)” value is recorded as 0.000 fold.

On to KTINGSGSPHPFVQNQQT, for which the “Fold Enrichment relative to AAV9, Brain (NHP)” value was 0.000 fold.

As to KTINGSGSPHSVRCNQQT, the “Fold Enrichment relative to AAV9, Brain (NHP)” value was 0.000 fold.

With KTINGSGSPHSKGCTQQT, the “Fold Enrichment relative to AAV9, Brain (NHP)” value was 0.000 fold.

KTINGSGSPHRIKQNQQT: the “Fold Enrichment relative to AAV9, Brain (NHP)” value is 0.000 fold.

KTINGSGSPHSFTPNQQT: the “Fold Enrichment relative to AAV9, Brain (NHP)” value came out at 0.000 fold.

Still in this experiment, the particulars now being: NHP heart; NGS; relative to AAV9 control.
Consider KTINGSGSPHCRVQNQQT, for which the “Fold Enrichment relative to AAV9, Heart (NHP)” value came out at 0.000 fold.

As to KTINGSGSPHSFFGNQQT, the “Fold Enrichment relative to AAV9, Heart (NHP)” value is 0.000 fold.

With KTINGSGSPHSKLPKQQT, the “Fold Enrichment relative to AAV9, Heart (NHP)” value was 0.000 fold.

KTINGSGSPHSKARMYQT: the “Fold Enrichment relative to AAV9, Heart (NHP)” value turned out to be 0.000 fold.

As for KTINGSGSPHSVRYNQQT, the “Fold Enrichment relative to AAV9, Heart (NHP)” value came out at 0.000 fold.

On to KTINGSGSPHPFVQNQQT, for which the “Fold Enrichment relative to AAV9, Heart (NHP)” value was 0.000 fold.

Regarding KTINGSGSPHSVRCNQQT, the “Fold Enrichment relative to AAV9, Heart (NHP)” value was found to be 0.000 fold.

Consider KTINGSGSPHSKGCTQQT, for which the “Fold Enrichment relative to AAV9, Heart (NHP)” value was 0.000 fold.

In the case of KTINGSGSPHRIKQNQQT, the “Fold Enrichment relative to AAV9, Heart (NHP)” value is 0.000 fold.

Consider KTINGSGSPHSFTPNQQT, for which the “Fold Enrichment relative to AAV9, Heart (NHP)” value was 0.000 fold.

Staying with this experiment, now noted: NHP liver DNA; NGS; relative to AAV9 control.
For KTINGSGSPHCRVQNQQT, the “Fold Enrichment relative to AAV9, Liver DNA (NHP)” value is 1.203 fold.

KTINGSGSPHSFFGNQQT: the “Fold Enrichment relative to AAV9, Liver DNA (NHP)” value is 6.101 fold.

Regarding KTINGSGSPHSKLPKQQT, the “Fold Enrichment relative to AAV9, Liver DNA (NHP)” value came out at 0.274 fold.

As to KTINGSGSPHSKARMYQT, the “Fold Enrichment relative to AAV9, Liver DNA (NHP)” value came to 0.313 fold.

Turning to KTINGSGSPHSVRYNQQT, the “Fold Enrichment relative to AAV9, Liver DNA (NHP)” value came out at 1.413 fold.

As for KTINGSGSPHPFVQNQQT, the “Fold Enrichment relative to AAV9, Liver DNA (NHP)” value is recorded as 1.286 fold.

Regarding KTINGSGSPHSVRCNQQT, the “Fold Enrichment relative to AAV9, Liver DNA (NHP)” value was determined as 3.912 fold.

As for KTINGSGSPHSKGCTQQT, the “Fold Enrichment relative to AAV9, Liver DNA (NHP)” value is 0.529 fold.

For KTINGSGSPHRIKQNQQT, the “Fold Enrichment relative to AAV9, Liver DNA (NHP)” value is recorded as 3.064 fold.

Take KTINGSGSPHSFTPNQQT: the “Fold Enrichment relative to AAV9, Liver DNA (NHP)” value came out at 1.036 fold.

Still in this experiment, the particulars now being: NHP liver RNA; NGS; TTM-001 and TTM-002 matured AAV capsid variants; relative to AAV9 control.
For the sequence KTINGSGSPHCRVQNQQT, the “Fold Enrichment relative to AAV9, Liver RNA (NHP)” value is 31.043 fold.

As to KTINGSGSPHSFFGNQQT, the “Fold Enrichment relative to AAV9, Liver RNA (NHP)” value was 38.088 fold.

As for KTINGSGSPHSKLPKQQT, the “Fold Enrichment relative to AAV9, Liver RNA (NHP)” value came out at 11.856 fold.

Regarding KTINGSGSPHSKARMYQT, the “Fold Enrichment relative to AAV9, Liver RNA (NHP)” value came out at 23.424 fold.

With KTINGSGSPHSVRYNQQT, the “Fold Enrichment relative to AAV9, Liver RNA (NHP)” value was found to be 16.390 fold.

As to KTINGSGSPHPFVQNQQT, the “Fold Enrichment relative to AAV9, Liver RNA (NHP)” value worked out at 12.091 fold.

For the sequence KTINGSGSPHSVRCNQQT, the “Fold Enrichment relative to AAV9, Liver RNA (NHP)” value is 15.860 fold.

With KTINGSGSPHSKGCTQQT, the “Fold Enrichment relative to AAV9, Liver RNA (NHP)” value came out at 26.068 fold.

For KTINGSGSPHRIKQNQQT, the “Fold Enrichment relative to AAV9, Liver RNA (NHP)” value is given as 21.720 fold.

As to KTINGSGSPHSFTPNQQT, the “Fold Enrichment relative to AAV9, Liver RNA (NHP)” value came to 24.227 fold.

The experiment is the same for the next values; noted with them: NHP muscle; NGS; relative to AAV9 control.
For the sequence KTINGSGSPHCRVQNQQT, the “Fold Enrichment relative to AAV9, Muscle (NHP)” value turned out to be 0.000 fold.

KTINGSGSPHSFFGNQQT: the “Fold Enrichment relative to AAV9, Muscle (NHP)” value turned out to be 0.000 fold.

On to KTINGSGSPHSKLPKQQT, for which the “Fold Enrichment relative to AAV9, Muscle (NHP)” value is listed as 0.000 fold.

Take KTINGSGSPHSKARMYQT: the “Fold Enrichment relative to AAV9, Muscle (NHP)” value came out at 0.000 fold.

Regarding KTINGSGSPHSVRYNQQT, the “Fold Enrichment relative to AAV9, Muscle (NHP)” value was found to be 0.000 fold.

As to KTINGSGSPHPFVQNQQT, the “Fold Enrichment relative to AAV9, Muscle (NHP)” value amounted to 0.000 fold.

For the sequence KTINGSGSPHSVRCNQQT, the “Fold Enrichment relative to AAV9, Muscle (NHP)” value is listed as 0.000 fold.

Turning to KTINGSGSPHSKGCTQQT, the “Fold Enrichment relative to AAV9, Muscle (NHP)” value is given as 0.000 fold.

Consider KTINGSGSPHRIKQNQQT, for which the “Fold Enrichment relative to AAV9, Muscle (NHP)” value is listed as 0.000 fold.

For KTINGSGSPHSFTPNQQT, the “Fold Enrichment relative to AAV9, Muscle (NHP)” value stood at 0.000 fold.
